{
  "source": "ChEMBL document CHEMBL5465560",
  "about": "“Selectivity Literature for EUbOPEN Chemogenomic Library” (2024)",
  "key": {"[1]": {"target": "T1, TGF-beta receptor type-1 (Homo sapiens) (UniProt P36897)", "T1 sequence (whole entry)": "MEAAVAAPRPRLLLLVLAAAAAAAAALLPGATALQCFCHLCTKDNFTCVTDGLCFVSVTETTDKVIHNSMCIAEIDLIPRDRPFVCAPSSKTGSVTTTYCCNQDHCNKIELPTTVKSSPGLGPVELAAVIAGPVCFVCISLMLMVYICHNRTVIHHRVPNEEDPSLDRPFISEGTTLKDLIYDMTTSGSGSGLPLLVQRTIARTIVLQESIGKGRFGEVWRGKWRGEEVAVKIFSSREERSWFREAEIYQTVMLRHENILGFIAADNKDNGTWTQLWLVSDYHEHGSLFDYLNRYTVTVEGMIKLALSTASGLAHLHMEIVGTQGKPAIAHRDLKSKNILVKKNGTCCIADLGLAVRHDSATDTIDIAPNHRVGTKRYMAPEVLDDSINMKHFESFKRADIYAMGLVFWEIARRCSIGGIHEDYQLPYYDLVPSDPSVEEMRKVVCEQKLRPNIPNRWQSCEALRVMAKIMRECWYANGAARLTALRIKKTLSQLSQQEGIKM", "details": "at 10 µM"}, "[2]": {"test_system": "T2, Receptor-type tyrosine-protein kinase FLT3 (Homo sapiens), P36888 [D835Y]", "T2 sequence (whole entry)": "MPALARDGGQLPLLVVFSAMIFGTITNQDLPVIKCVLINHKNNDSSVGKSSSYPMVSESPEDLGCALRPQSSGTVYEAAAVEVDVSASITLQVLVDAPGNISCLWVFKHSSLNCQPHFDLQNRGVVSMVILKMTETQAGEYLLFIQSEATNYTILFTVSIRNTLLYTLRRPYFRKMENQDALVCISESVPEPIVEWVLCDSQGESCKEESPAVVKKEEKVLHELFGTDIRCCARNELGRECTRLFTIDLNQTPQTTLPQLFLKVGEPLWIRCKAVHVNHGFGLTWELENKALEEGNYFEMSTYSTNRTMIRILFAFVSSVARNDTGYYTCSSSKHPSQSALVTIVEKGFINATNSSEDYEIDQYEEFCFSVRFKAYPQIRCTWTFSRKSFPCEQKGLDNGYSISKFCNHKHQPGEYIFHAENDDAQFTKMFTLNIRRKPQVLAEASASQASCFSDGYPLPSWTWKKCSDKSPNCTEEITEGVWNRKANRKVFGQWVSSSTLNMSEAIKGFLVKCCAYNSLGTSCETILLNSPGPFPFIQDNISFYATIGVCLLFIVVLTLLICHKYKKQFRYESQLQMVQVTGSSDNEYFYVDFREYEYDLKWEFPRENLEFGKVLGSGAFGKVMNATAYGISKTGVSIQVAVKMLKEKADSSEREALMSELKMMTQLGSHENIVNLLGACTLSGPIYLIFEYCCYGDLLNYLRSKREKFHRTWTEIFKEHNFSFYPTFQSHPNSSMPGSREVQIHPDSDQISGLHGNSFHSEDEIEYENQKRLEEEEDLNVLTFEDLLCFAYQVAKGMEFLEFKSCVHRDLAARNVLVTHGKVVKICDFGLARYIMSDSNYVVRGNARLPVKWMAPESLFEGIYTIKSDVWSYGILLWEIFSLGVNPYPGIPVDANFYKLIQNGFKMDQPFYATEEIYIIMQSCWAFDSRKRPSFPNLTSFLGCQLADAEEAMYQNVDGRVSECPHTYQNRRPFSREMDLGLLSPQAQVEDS", "test": "(§1) Selectivity interaction (Ambit KINOMEscan and KiNATiv profiling in Jurkat cells) EUB0000090b FLT3", "assay_type": "cell-based", "details": "at 1 µM"}, "[3]": {"test_system": "T3, Receptor-type tyrosine-protein kinase FLT3 (Homo sapiens), P36888 [K663Q]", "T3 sequence (whole entry)": "T2 sequence (whole entry) with K663Q, Y835D", "test": "as §1", "assay_type": "cell-based", "details": "at 1 µM"}, "[4]": {"test_system": "Receptor-type tyrosine-protein kinase FLT3 (Homo sapiens), P36888 [UNDEFINED MUTATION]", "test": "as §1", "assay_type": "cell-based", "details": "at 1 µM"}, "[5]": {"target": "Ephrin type-A receptor 7 (Homo sapiens) (UniProt Q15375)", "sequence (Q15375 28-998 limits assumed)": "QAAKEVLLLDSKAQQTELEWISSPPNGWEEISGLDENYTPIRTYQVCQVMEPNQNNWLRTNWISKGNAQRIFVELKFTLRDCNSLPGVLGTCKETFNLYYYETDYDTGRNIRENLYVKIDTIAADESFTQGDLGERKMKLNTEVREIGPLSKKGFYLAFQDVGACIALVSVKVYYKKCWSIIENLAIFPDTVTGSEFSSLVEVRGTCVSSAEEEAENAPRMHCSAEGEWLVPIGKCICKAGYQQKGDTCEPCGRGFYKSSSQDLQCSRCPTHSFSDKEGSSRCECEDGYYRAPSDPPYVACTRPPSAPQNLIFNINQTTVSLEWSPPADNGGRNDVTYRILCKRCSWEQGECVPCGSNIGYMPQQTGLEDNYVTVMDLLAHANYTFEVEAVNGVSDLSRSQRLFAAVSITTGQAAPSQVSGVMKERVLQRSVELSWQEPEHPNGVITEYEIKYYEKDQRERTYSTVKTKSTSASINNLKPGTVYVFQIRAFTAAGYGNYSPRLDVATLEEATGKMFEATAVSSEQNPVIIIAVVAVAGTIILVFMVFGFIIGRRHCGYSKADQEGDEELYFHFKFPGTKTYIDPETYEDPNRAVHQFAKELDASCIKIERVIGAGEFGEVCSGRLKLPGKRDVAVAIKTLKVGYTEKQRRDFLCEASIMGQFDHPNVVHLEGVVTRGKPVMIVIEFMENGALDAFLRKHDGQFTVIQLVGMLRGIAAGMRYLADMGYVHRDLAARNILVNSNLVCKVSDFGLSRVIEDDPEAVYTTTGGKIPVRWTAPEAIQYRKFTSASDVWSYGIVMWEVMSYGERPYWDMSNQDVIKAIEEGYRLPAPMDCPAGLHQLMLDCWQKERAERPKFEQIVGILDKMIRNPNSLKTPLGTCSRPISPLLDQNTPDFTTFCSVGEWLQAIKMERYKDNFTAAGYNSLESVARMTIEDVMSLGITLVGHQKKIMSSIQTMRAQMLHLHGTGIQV", "test": "Selectivity interaction (LanthaScreen Eu Kinase Binding Assay) EUB0001632a EPHA7", "details": "at 10 µM"}},
  "note": "Substitutions are numbered along the chain they refer to.",
  "data": [
    {"molecule": "CCN(CC)CCCCNc1ncc2cc(-c3cc(OC)cc(OC)c3)c(NC(=O)NC(C)(C)C)nc2n1", "values": [
      {"measurement": "% of control", "setting": "[1]", "value": 100, "unit": "%"}
    ]},
    {"molecule": "CN(C)C/C=C/C(=O)Nc1ccc(C(=O)N2CCCC(Nc3ncc(Cl)c(-c4c[nH]c5ccccc45)n3)C2)cc1", "note": "(stereo not given)", "values": [
      {"measurement": "% of control", "setting": "[2]", "value": 76, "unit": "%"},
      {"measurement": "% of control", "setting": "[3]", "value": 84, "unit": "%"},
      {"measurement": "% of control", "setting": "[4]", "value": 86, "unit": "%"}
    ]},
    {"molecule": "Cn1cc(-n2cnc3c(NCc4nc5cc(Cl)c(Cl)cc5[nH]4)nc(N4CCOCC4)nc32)cn1", "values": [
      {"measurement": "% of inhibition", "setting": "[5]", "value": -69.8, "unit": "%"}
    ]}
  ]
}
